From patent US20080207614A1, “QUINAZOLINE DERIVATIVES FOR THE TREATMENT AND PREVENTION OF DIABETES AND OBESITY” (SK CHEMICALS CO., LTD., priority 2004, published 2008)

Test system: C2C12 muscle cells
Test: Analysis of glucose absorption (2-deoxyglucose) in differentiated C2C12 muscle cells
Format: cell-based
Settings: test materials 10 μM, times relative to control group
Experimental: C2C12 muscle cells were cultured in DMEM (Dulbecco's modified Eagle's medium) containing 10% bovine calf serum. When the cell density increased to about 85 to 90%, the culture medium was replaced with 1% bovine calf serum and cell differentiation was induced for 6 days. Completely differentiated cells were cultured for 3 hours with Krebs-Ringer buffer (KRB) containing 5 mM glucose. The test materials were added at a concentration of 10 μM. 30 minutes later, 0.2 μCi 2-deoxyglucose was added. KRB was removed 20 minutes later and the cells were washed for 3 times with cold PBS. The cells were lysed with 0.5N NaOH and counted using a radioactive counter.

Row | SMILES | Glucose absorption
1 | COc1ccc(Nc2nc(-c3ccccc3)nc3ccccc23)cc1O [Compound 84, 2-Methoxy-5-(2-phenylquinazolino-4-ylamino)phenol] | 1.0
2 | OCCCCCNc1nc(-c2ccccc2)nc2ccccc12 [Compound 85, 5-(2-Phenylquinazolino-4-ylamino)-pentane-1-ol] | 1.0
3 | c1ccc(CNc2nc(-c3ccccc3)nc3ccccc23)cc1 [Compound 86, Benzyl-(2-phenylquinazolino-4-yl)-amine] | 1.4
4 | CC(Nc1nc(-c2ccccc2)nc2ccccc12)c1ccccc1 (stereo not shown) [Compound 87, (1-Phenylethyl)-(2-phenylquinazolino-4-yl)-amine] | 1.0
5 | Clc1ccc(CNc2nc(-c3ccccc3)nc3ccccc23)cc1 [Compound 88, (4-Chlorobenzyl)-(2-phenylquinazolino-4-yl)-amine] | 1.1
6 | Clc1ccc(CNc2nc(-c3ccccc3)nc3ccccc23)cc1Cl [Compound 89, (3,4-Dichlorobenzyl)-(2-phenylquinazolino-4-yl)-amine] | 1.4
7 | COc1cccc(CNc2nc(-c3ccccc3)nc3ccccc23)c1 [Compound 90, (3-Methoxybenzyl)-(2-phenylquinazolino-4-yl)-amine] | 1.4
8 | COc1ccccc1CNc1nc(-c2ccccc2)nc2ccccc12 [Compound 91, (2-Methoxybenzyl)-(2-phenylquinazolino-4-yl)-amine] | 1.2
9 | COc1cc(CNc2nc(-c3ccccc3)nc3ccccc23)cc(OC)c1 [Compound 92, (3,5-Dimethoxybenzyl)-(2-phenylquinazolino-4-yl)-amine] | 1.4
10 | COc1cccc(CNc2nc(-c3ccccc3)nc3ccccc23)c1OC [Compound 93, (2,3-Dimethoxybenzyl)-(2-phenylquinazolino-4-yl)-amine] | 1.1
11 | Fc1ccccc1CNc1nc(-c2ccccc2)nc2ccccc12 [Compound 94, (2-Fluorobenzyl)-(2-phenylquinazolino-4-yl)-amine] | 1.3
12 | c1ccc(-c2nc(NC3CCCC3)c3ccccc3n2)cc1 [Compound 95, Cyclopentyl-(2-phenylquinazolino-4-yl)-amine] | 1.2
13 | CCC(C)Nc1nc(-c2ccccc2)nc2ccccc12 (stereo not shown) [Compound 96, sec-Butyl-(2-phenylquinazolino-4-yl)-amine] | 1.3
14 | C=CCNc1nc(-c2ccccc2)nc2ccccc12 [Compound 97, Allyl-(2-phenylquinazolino-4-yl)-amine] | 1.0
15 | FC(F)(F)c1ccccc1CNc1nc(-c2ccccc2)nc2ccccc12 [Compound 98, (2-Phenylquinazolino-4-yl)-(2-trifluoromethylbenzyl)-amine] | 1.2
16 | CCCCCCCCCCCCCCCCNc1nc(-c2ccccc2)nc2ccccc12 [Compound 99, Hexadecyl-(2-phenylquinazolino-4-yl)-amine] | 1.4
17 | c1ccc(-c2nc(NCCN3CCCC3)c3ccccc3n2)cc1 [Compound 100, (2-Phenylquinazolino-4-yl)-(2-pyrrolidino-1-ylethyl)-amine] | 1.4
18 | c1ccc(-c2nc(NCCc3ccccn3)c3ccccc3n2)cc1 [Compound 102, (2-Phenylquinazolino-4-yl)-(2-pyridino-2-ylethyl)-amine] | 1.2
19 | CCC(COC)Nc1nc(-c2ccccc2)nc2ccccc12 (stereo not shown) [Compound 104, (1-Methoxymethylpropyl)-(2-phenylquinazolino-4-yl)-amine] | 1.0

Row | SMILES | Glucose absorption
20 | c1ccc(CN2CCC(Nc3nc(-c4ccccc4)nc4ccccc34)CC2)cc1 [Compound 105, (1-Benzyl-piperidino-4-yl)-(2-phenylquinazolino-4-yl)-amine] | 1.2
21 | COc1ccc(CCNc2nc(-c3ccccc3)nc3ccccc23)cc1OC [Compound 107, [2-(3,4-Dimethoxyphenyl)-ethyl]-(2-phenylquinazolino-4-yl)-amine] | 0.4
22 | CCN1CCCC1CNc1nc(-c2ccccc2)nc2ccccc12 (stereo not shown) [Compound 117, (1-Ethyl-pyrrolidino-2-ylmethyl)-(2-phenylquinazolino-4-yl)-amine] | 1.4
23 | COc1cccc(CCNc2nc(-c3ccccc3)nc3ccccc23)c1 [Compound 120, [2-(3-Methoxyphenyl)-ethyl]-(2-phenylquinazolino-4-yl)-amine] | 1.4
24 | COc1ccc(OC)c(CCNc2nc(-c3ccccc3)nc3ccccc23)c1 [Compound 122, [2-(2,5-Dimethoxyphenyl)-ethyl]-(2-phenylquinazolino-4-yl)-amine] | 1.3
25 | COc1ccc(CCNc2nc(-c3ccccc3)nc3ccccc23)cc1 [Compound 124, [2-(4-Methoxyphenyl)-ethyl]-(2-phenylquinazolino-4-yl)-amine] | 1.4
26 | Clc1ccc(CCNc2nc(-c3ccccc3)nc3ccccc23)c(Cl)c1 [Compound 127, [2-(2,4-Dichlorophenyl)-ethyl]-(2-phenylquinazolino-4-yl)-amine] | 1.4
27 | COc1cc(CNc2nc(-c3ccccc3)nc3ccccc23)cc(OC)c1OC [Compound 129, (2-Phenylquinazolino-4-yl)-(3,4,5-trimethoxybenzyl)-amine] | 1.3
28 | c1ccc(-c2nc(NCC3CCCCC3)c3ccccc3n2)cc1 [Compound 132, Cyclohexylmethyl-(2-phenylquinazolino-4-yl)-amine] | 1.3
29 | c1ccc(-c2nc(NCCC(c3ccccc3)c3ccccc3)c3ccccc3n2)cc1 [Compound 136, (3,3-Diphenylpropyl)-(2-phenylquinazolino-4-yl)-amine] | 1.3
30 | c1ccc(-c2nc(NCc3ccncc3)c3ccccc3n2)cc1 [Compound 141, (2-Phenylquinazolino-4-yl)-pyridino-4-ylmethylamine] | 2.1
31 | OC(CNc1nc(-c2ccccc2)nc2ccccc12)c1ccccc1 (stereo not shown) [Compound 146, 1-Phenyl-2-(2-phenylquinazolino-4-ylamino)-ethanol] | 2.3
32 | O=C1CCCN1CCCNc1nc(-c2ccccc2)nc2ccccc12 [Compound 150, 1-[3-(2-Phenylquinazolino-4-ylamino)-propyl]-pyrrolidino-2-one] | 2.6
33 | Oc1ccccc1CCNc1nc(-c2ccccc2)nc2ccccc12 [Compound 152, 2-[2-(2-Phenylquinazolino-4-ylamino)-ethyl]-phenol] | 2.4
34 | COc1cccc(OC)c1CNc1nc(-c2ccccc2)nc2ccccc12 [Compound 154, (2,6-Dimethoxybenzyl)-(2-phenylquinazolino-4-yl)-amine] | 2.5
35 | c1ccc(-c2nc(NCCCN3CCOCC3)c3ccccc3n2)cc1 [Compound 156, (3-Morpholino-4-ylpropyl)-(2-phenylquinazolino-4-yl)-amine] | 1.1
36 | CCCCN(CCO)c1nc(-c2ccccc2)nc2ccccc12 [Compound 157, 2-[Butyl-(2-phenylquinazolino-4-yl)-amino]-ethanol] | 2.0
37 | CN1CCN(CCNc2nc(-c3ccccc3)nc3ccccc23)CC1 [Compound 158, [2-(4-Methylpiperazino-1-yl)-ethyl]-(2-phenylquinazolino-4-yl)-amine] | 2.0
